The text below walks through data of ChEMBL document CHEMBL4130444, “1,4-Naphthoquinones as inhibitors of Itch, a HECT domain-E3 ligase, and tumor growth suppressors in multiple myeloma” (Eur J Med Chem, 2017).

As usually defined, the GI50 is the concentration that inhibits growth by half. The term IC50 denotes the concentration at which inhibition is half-maximal.

Structures are written as SMILES. Some results are limits rather than exact numbers.

Data set [1] is filed under the species Homo sapiens. Put plainly: Inhibition of UBE1/UbcH13/Uev1A/CHIP/p53 (unknown origin) assessed as protein activity at […] by electrochemiluminescence based ubiquitin profiler panel assay. Set-up: scale not given: the % may be the effect or the level left.
Data set [2] relates to Mus musculus. As to the kind of experiment: Toxicity in human RPMI8226 cells xenografted SCID nude mouse assessed as induction of adverse events at 50 mg/kg, po dosed daily for 45 days. The data set is classed as organism-based. As to conditions: in vivo, 1080 h.
The next data set deals with REH. Put plainly: Antiproliferative activity against human REH cells incubated for 48 hrs by SRB assay. The data set is classed as functional. On the technique in general: Sulforhodamine B stains cellular protein and so reports cell mass.
The test system of the next data set is HT-29. Put plainly: Antiproliferative activity against human HT-29 cells incubated for 48 hrs by SRB assay. As to conditions: HT-29, 48 h. The data set is classed as functional.
For a further data set, the system named is RPMI-8226. Put plainly: Antiproliferative activity against human RPMI8226 cells incubated for 48 hrs by SRB assay. The data set is classed as functional, cell-based. As to conditions: RPMI-8226, 48 h.
The species named for data set [3] is Homo sapiens. As to the kind of experiment: Inhibition of UBE1/UbcH3/SCFSkp2/Cks1/p27 (unknown origin) assessed as protein activity at […] by electrochemiluminescence based ubiquitin profiler panel assay. Set-up: scale not given: the % may be the effect or the level left.
In a further data set the test system is K562. Put plainly: Antiproliferative activity against human K562 cells incubated for 48 hrs by SRB assay. The data set is classed as functional. As to conditions: K562, 48 h.
The species entered for data set [4] is Homo sapiens. Put plainly: Inhibition of UBE1/UbcH7/Parkin/p38/JTV-1 (unknown origin) assessed as protein activity at […] by electrochemiluminescence based ubiquitin profiler panel assay. Set-up: scale not given: the % may be the effect or the level left.
The next data set has as its system BXPC-3. Put plainly: Antiproliferative activity against human BxPC3 cells incubated for 48 hrs by SRB assay. The settings on record: BXPC-3, 48 h. The data set is classed as functional.
Data set [5] deals with Mus musculus. As to the kind of experiment: Toxicity in human RPMI8226 cells xenografted SCID nude mouse assessed as induction of adverse events at 25 mg/kg, po dosed daily for 45 days. It is filed as organism-based. As to conditions: in vivo, 1080 h.
For data set [6], the species on record is Homo sapiens. As to the kind of experiment: Inhibition of UBE1/UbcH3/SCFbTrCP1/b-catenin (unknown origin) assessed as protein activity at […] by electrochemiluminescence based ubiquitin profiler panel assay. Set-up: scale not given: the % may be the effect or the level left.
Data set [7] is described as follows: Antiproliferative activity against human ZR-75 cells incubated for 48 hrs by SRB assay. The data set is classed as functional. As to conditions: ZR75, 48 h.
Data set [8] is filed under the species Homo sapiens. As to the kind of experiment: Inhibition of UBE1/UbcH6/Parkin/Parkin(Auto) (unknown origin) assessed as protein activity at […] by electrochemiluminescence based ubiquitin profiler panel assay. Set-up: scale not given: the % may be the effect or the level left.
The target of data set [9] is E3 ubiquitin-protein ligase Itchy homolog (Homo sapiens) (UniProt Q96J02). As to the kind of experiment: Inhibition of Itch (unknown origin) assessed as reduction in Itch-mediated ubiquitination in presence of E1 enzyme, E2 enzyme and ATP incubated for 20 mins by SDS-PAGE method.
The species entered for data set [10] is Homo sapiens. Put plainly: Inhibition of UBE1/UbcH13/Uev1A/CHIP/Hsp70 (unknown origin) assessed as protein activity at […] by electrochemiluminescence based ubiquitin profiler panel assay. Set-up: scale not given: the % may be the effect or the level left.
The subject of another data set is HepG2. As to the kind of experiment: Antiproliferative activity against human HepG2 cells incubated for 48 hrs by SRB assay. The data set is classed as functional. The settings on record: HepG2, 48 h.
The test system of another data set is OVCAR-3. Put plainly: Antiproliferative activity against human OVCAR3 cells incubated for 48 hrs by SRB assay. The data set is classed as functional. The settings on record: OVCAR-3, 48 h.
The species named for data set [11] is Homo sapiens. Put plainly: Inhibition of UBE1/UbcH7/Parkin/Parkin(Auto) (unknown origin) assessed as protein activity at […] by electrochemiluminescence based ubiquitin profiler panel assay. Set-up: scale not given: the % may be the effect or the level left.
Another data set relates to HL-60. Put plainly: Antiproliferative activity against human HL60 cells incubated for 48 hrs by SRB assay. It is filed as functional. As to conditions: HL-60, 48 h.
In another data set the test system is MDA-MB-231. Put plainly: Antiproliferative activity against human MDA-MB-231 cells incubated for 48 hrs by SRB assay. It is filed as functional. As to conditions: MDA-MB-231, 48 h.

Sequence of E3 ubiquitin-protein ligase Itchy homolog (Homo sapiens) (Q96J02 whole entry): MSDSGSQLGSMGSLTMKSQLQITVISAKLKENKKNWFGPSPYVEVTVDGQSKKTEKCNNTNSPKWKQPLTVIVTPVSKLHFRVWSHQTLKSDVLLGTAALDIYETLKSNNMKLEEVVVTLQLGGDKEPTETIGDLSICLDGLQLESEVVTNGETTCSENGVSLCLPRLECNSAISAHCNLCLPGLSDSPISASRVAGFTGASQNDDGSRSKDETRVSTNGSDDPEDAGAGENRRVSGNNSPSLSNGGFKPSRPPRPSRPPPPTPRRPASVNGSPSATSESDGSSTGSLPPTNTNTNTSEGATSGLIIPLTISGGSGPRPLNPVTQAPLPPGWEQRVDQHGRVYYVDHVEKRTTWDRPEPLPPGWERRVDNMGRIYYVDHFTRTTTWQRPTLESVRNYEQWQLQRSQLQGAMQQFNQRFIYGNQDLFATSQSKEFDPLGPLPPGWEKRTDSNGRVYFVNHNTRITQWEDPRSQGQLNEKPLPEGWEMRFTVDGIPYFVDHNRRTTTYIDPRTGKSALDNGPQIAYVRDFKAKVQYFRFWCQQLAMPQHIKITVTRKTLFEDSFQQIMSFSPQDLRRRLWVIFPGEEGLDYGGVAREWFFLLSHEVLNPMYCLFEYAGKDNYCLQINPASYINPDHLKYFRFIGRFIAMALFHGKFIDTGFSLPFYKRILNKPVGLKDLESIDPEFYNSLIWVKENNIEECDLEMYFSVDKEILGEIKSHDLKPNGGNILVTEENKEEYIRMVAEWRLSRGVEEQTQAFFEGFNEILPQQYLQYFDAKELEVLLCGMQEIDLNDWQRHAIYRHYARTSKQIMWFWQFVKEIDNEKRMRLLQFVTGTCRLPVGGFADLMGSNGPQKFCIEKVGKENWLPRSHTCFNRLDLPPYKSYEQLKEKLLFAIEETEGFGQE

Consider `O=C(Nc1ccncc1)c1ccc(CNC2=C(Cl)C(=O)c3ccccc3C2=O)cc1`, for which the Activity is 52% in the data set filed under Homo sapiens [1]; “Non-Toxic” in the data set on Mus musculus [2]; 85% in the data set listed under Homo sapiens [3]; 72% in the data set filed under Homo sapiens [4]; “Non-Toxic” in the data set on Mus musculus [5]; 101% in the data set filed under Homo sapiens [6]. Moreover, the Activity is 61% in the data set listed under Homo sapiens [8], 93% in the data set filed under Homo sapiens [10] and 65% in the data set listed under Homo sapiens [11]. The concentration for 50% growth inhibition (GI50) in the data set on REH was 2800 nM; with HT-29, 3800 nM; in the data set on K562, 1700 nM; in the data set on BXPC-3, 1200 nM; in [7], above 5000 nM; in the data set with HepG2, 3600 nM. Further, the results for the GI50 in the data set with OVCAR-3, in the data set with HL-60 and in the data set with MDA-MB-231 were 1900 nM, 1600 nM and 2900 nM, respectively. Further, the IC50 in the data set on RPMI-8226 was 2600 nM. For the same compound, the inhibition entry in data set [9] is “Dose-dependent effect”.
